BindingDB's records for doi:10.1016/S0960-894X(97)00125-X (1997)
Square brackets hold non-standard residues; d marks the D form. Peptide text beside a SMILES is read from it. * marks the point of attachment. Propionyl = CCC(=O)*; Mpa = O=C(O)CCS

What was measured:
[1] = target: Stromelysin-1 (MMP-3) (Rattus norvegicus) (UniProt P03957); assay: Compound was tested for its inhibitory activity against Matrix metalloprotease-3 (MMP-3) in adjuvant arthritic rat model of rheumatoid arthritis
[2] = target: Stromelysin-1 (MMP-3) (Rattus norvegicus) (UniProt P03957); assay: as above; remark: listed apart in the source

Sequence of Stromelysin-1 (MMP-3) (Rattus norvegicus) (P03957 whole entry, looked up): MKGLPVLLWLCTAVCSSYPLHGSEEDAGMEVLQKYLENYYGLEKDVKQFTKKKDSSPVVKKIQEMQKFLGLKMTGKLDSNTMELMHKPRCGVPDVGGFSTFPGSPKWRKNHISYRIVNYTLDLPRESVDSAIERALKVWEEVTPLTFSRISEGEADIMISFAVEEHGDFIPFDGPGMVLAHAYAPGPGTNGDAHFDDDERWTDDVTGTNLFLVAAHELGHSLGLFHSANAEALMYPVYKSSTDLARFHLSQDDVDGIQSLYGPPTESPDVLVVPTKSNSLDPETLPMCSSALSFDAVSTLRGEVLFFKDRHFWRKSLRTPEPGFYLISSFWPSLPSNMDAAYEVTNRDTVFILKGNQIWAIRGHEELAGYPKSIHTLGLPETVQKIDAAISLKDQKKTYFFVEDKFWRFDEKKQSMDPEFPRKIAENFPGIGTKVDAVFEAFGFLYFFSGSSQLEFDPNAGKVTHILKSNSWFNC

Row | Structure (SMILES) | IC50 [1] [µM] | IC50 [2] [µM]
1 | CNC(=O)[C@H](Cc1ccccc1)NC(=O)[C@H](C[S+](C)[O-])NC(=O)CS (stereo partly drawn) [(R)-2-(2-Mercapto-acetylamino)-3-methanesulfinyl-N-((S)-1-methylcarbamoyl-2-phenyl-ethyl)-propionamide] | 8.5 | –
2 | CNC(=O)[C@H](Cc1ccccc1)NC(=O)[C@H](CSC)NC(=O)CS [(R)-2-(2-Mercapto-acetylamino)-N-((S)-1-methylcarbamoyl-2-phenyl-ethyl)-3-methylsulfanyl-propionamide] | 0.65 | –
3 | CNC(=O)[C@H](Cc1ccccc1)NC(=O)[C@H](CC(C)C)NC(=O)CS [(S)-2-(2-Mercapto-acetylamino)-4-methyl-pentanoic acid ((S)-1-methylcarbamoyl-2-phenyl-ethyl)-amide] | 2.6 | –
4 | CNC(=O)[C@H](Cc1cscn1)NC(=O)[C@H](CC(C)C)NC(=O)CS [(S)-2-(2-Mercapto-acetylamino)-4-methyl-pentanoic acid ((S)-1-methylcarbamoyl-2-thiazol-4-yl-ethyl)-amide] | – | 0.43
5 | CNC(=O)[C@H](Cc1c[nH]c2ccccc12)NC(=O)[C@H](CC(C)C)NC(=O)CS [(S)-2-(2-Mercapto-acetylamino)-4-methyl-pentanoic acid [(S)-2-(1H-indol-3-yl)-1-methylcarbamoyl-ethyl]-amide] | – | 0.43
6 | CNC(=O)[C@H](Cc1ccccc1)NC(=O)[C@H](CC(C)C)NC(=O)CSC [(S)-4-Methyl-2-(2-methylsulfanyl-acetylamino)-pentanoic acid ((S)-1-methylcarbamoyl-2-phenyl-ethyl)-amide] | > 100 | –

More lines, now with the values ahead:

Row | IC50 [1] [µM] | IC50 [2] [µM] | Structure (SMILES)
7 | – | 0.81 | CNC(=O)[C@H](Cc1c[nH]c2ccccc12)NC(=O)[C@H](CSC)NC(=O)CS [(R)-N-[(S)-2-(1H-Indol-3-yl)-1-methylcarbamoyl-ethyl]-2-(2-mercapto-acetylamino)-3-methylsulfanyl-propionamide]
8 | > 100 | – | CNC(=O)[C@H](Cc1ccccc1)NC(=O)[C@H](CC(C)C)NC(=O)CCS [(S)-2-(3-Mercapto-propionylamino)-4-methyl-pentanoic acid ((S)-1-methylcarbamoyl-2-phenyl-ethyl)-amide] ([Mpa]-Leu-Phe-NHMe)
9 | > 100 | – | CNC(=O)[C@H](Cc1ccccc1)NC(=O)[C@@H](NC(=O)CS)C(C)O (stereo partly drawn) [(S)-3-Hydroxy-2-(2-mercapto-acetylamino)-N-((S)-1-methylcarbamoyl-2-phenyl-ethyl)-butyramide]
10 | > 100 | – | CCC(=O)N[C@@H](CC(C)C)C(=O)N[C@@H](Cc1ccccc1)C(=O)NC [(S)-4-Methyl-2-propionylamino-pentanoic acid ((S)-1-methylcarbamoyl-2-phenyl-ethyl)-amide] (Propionyl-Leu-Phe-NHMe)
